These results are taken from article PMC8179271, “Identification of β-strand mediated protein–protein interaction inhibitors using ligand-directed fragment ligation” (Chemical Science, 2021).

By Kd is commonly meant the equilibrium constant for the complex coming apart. What is called IC50 is the concentration at which inhibition is half-maximal. The term EC50 denotes the midpoint of the concentration-response curve.

Read-outs that look alike come from different tables or passages of the source. Residues, ends and D or L forms follow the SMILES beside them. *: point of attachment. FITC = O=C1OC2(c3ccc(O)cc3Oc3cc(O)ccc32)c2ccc(NC(=S)*)cc21; Ahx = NCCCCCC(=O)O

Holding throughout (format): binding
Assay [1] concerns the target T1, SHANK1 PDZ (Homo sapiens, UniProt Q9Y566).
T1 construct: Human Shank1 PDZ domain (656-762) was cloned into the pGEX-6P-2 expression vector; GST (N, cleaved yes); made in house; host or cells: E. coli BL21 Gold
T1 sequence (Q9Y566 656-762): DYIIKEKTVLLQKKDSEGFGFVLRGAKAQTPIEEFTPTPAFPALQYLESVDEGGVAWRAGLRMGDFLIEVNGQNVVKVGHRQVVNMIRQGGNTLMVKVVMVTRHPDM
In words: Isothermal titration calorimetry (ITC). The settings on record: for Kd / n (ITC stoichiometry) / ΔH / ΔS: 25 mM Tris pH 7.5, 150 mM NaCl, 25 °C. The procedure: Fitted thermograms and thermodynamic signatures for the tested peptides and hydrazones. […] For individual raw ITC data and fitted thermograms see Fig. S14. ^† […]
Figure S14. Raw ITC data (top) and fitted thermograms (bottom) for the tested hydrazone hits and […]
0.75-1 mM peptide or hydrazone solution to 75-150 µM protein.
(1 picture or pasted object on this page, not shown here)
2.5. Isothermal tritration calorimetry
ITC experiments were carried out using Microcal ITC200i instrument (Malvern) at 25°C […]
Shank1 PDZ was dialysed against the buffer prior to experiment, lyophilized peptides and hydrazones were dissolved in the same buffer. 75 or […]
depending on compound solubility, from the syringe using 2 µL injections with 120 s spacing between the injections for 20 injection. Heats of peptide dilution w ere measured by titrating the peptide into buffer and subtracted from each measurement. Dat a was analysed using Microcal Origin 8 and fitt ed to a one-binding site model. […]
In general terms: In ITC the heat of successive injections is recorded.

Assay [2] concerns the target T1, SHANK1 PDZ. In words: Fluorescence anisotropy competition assay (FITC-Ahx-TRL-COOH tracer). The settings on record: 50 mM NH4Ac pH 6.5, 10 mM aniline. Here is the method: (d) FA competition curves for hybrids from the extended screen. All screening and validation assays were performed in 50 mM NH4Ac buffer, pH 6.5, 10 mM aniline using 1 μM final protein concentration and 10 nM FITC-Ahx-TRL-COOH as tracer at room temperature. […] Anisotropy is expressed relative to the control experiment where no competitor is present. Hit thresholds were defined based on the relative anisotropy of the (i) buffer control (rbuffer − 3σ) and (ii) the TRL control (rTRL − 3σ). Compounds below these thresholds are coloured blue and red respectively.
(0.22 µm membrane) and applied to glutathione beads and washed with 10 CV 20 mM Tris, pH 8, 500 mM NaCl. GST was cleaved on-column overnight at 4 °C using Prescission protease.
The eluted fractions were concentrated and purified by size-exclusion chromatography on S75 26/60 pg column in 20 mM Tris, 150 mM NaCl, 5% glycerol pH 7.5 buffer. Collected fractions were analysed by SDS-PAGE and concentrated. Pure protein was analysed by high resolution […]
determined by UV-VIS spectroscopy using the 8480 M-1 cm-1 extinction coefficient. […]
2.3. Aldehyde library selection
A diverse subset of fragments was selected from commercially available small molecule aldehydes (AldrichCPR, Fluorochem and Acros). Available compounds having one aldehyde functionality were filtered first based on physicochemical properties: 80 Da < MW < 400 Da, HBA, HBD ≤ 3, and clogP ≤ 5. To select a diverse set of compounds , first, binary molecular fingerprint s were generated for each molecule using the FragFp descriptor implemented in DataWarrior (openmolecules.org) , which relies on a predefined substructure fragment library and is used to compare 2D structural similarities. Then, using the same software , structurall y dissimilar subset of compounds was selected based on the molecular fingerprints. Compounds were further excluded based on undesired functional groups and commerical availability , […]
carboxylic acid functional groups.
2.4. Fluorescence anisotropy
Fluorescence anisotropy assays were performed in 384-well plates (Greiner Bio-one) and the fluorescence anisotropy measured using a Perkin Elmer EnVisionTM 2103 MultiLabel plate reader, with excitation at 480 nm (30 nm bandwidth), polarised dichroic mirror at 505 nm and […]
°C. Fluorescence anisotropy data was processed as described previously.4 The data from both […]
the P (perpendicular intensity) and S (parallel intensity) channels, resulting from this measurement and corrected by subtracting the corresponding control wells, were used to calculate the intensity and anisotropy for each well following Equations 1 and 2: […]
r = anisotropy, I = total intensity, P = perpendicular intensity, S = parallel intensity, G is an […]
Assays were performed in 50 mM NH4Ac, 10 mM aniline, pH 6.5 buffer. Shank 1 PDZ was dialysed into the assay buffer prior to the experiment. […]
In general terms: Fluorescence polarisation rises when a labelled molecule tumbles more slowly, as on binding a larger partner.

The target of assay [3] is T2, PDZ domain of PSD-95 (PSD-95 PDZ1) (Homo sapiens, UniProt P78352).
T2 construct: made in house
T2 sequence (P78352 with tags, fused parts or gaps): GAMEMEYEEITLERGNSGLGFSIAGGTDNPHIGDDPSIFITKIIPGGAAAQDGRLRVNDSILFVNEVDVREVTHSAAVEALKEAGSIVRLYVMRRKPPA
In words: 1H-15N HSQC chemical shift perturbation titration. The settings on record: Fig. S24. The text has this:
Since Class I PDZ domains bind to consensus sequences,[71,72] we set out to further assess the selectivity of the peptide-fragment hybrids against another Class I PDZ domain. We compared the ability to bind to SHANK1 PDZ against the ability to bind to the PDZ domain of PSD-95, a therapeutically important target in neuronal diseases and cancer.[58] We monitored the binding using chemical shift perturbations in the ^1H–^15N HSQC spectra of the PDZ domain of PSD-95 (Fig. S22, S23, Tables S7 and S8 ^†). […] However, PSD-95 also lacks the patch of cationic residues proximal to the C-terminal carboxylate binding site. Such a result provides confidence that the dynamic ligation screening approach used here can encode and retain selectivity.
PSD 95 PDZ1 amino acid sequence
Figure S22. Overlay of plots for 4-A047 with Ligand:protein ratio ranging from 1:1 to 100:1. The gradual change in chemical shifts of limited residues indicate that the binding of the ligand is specific and to the putative ligand binding site.
Figure S23. Mapping of chemical shift changes onto the structure of PSD95 PDZ1 using PDB Accession Code 2KA9 (cypin peptide in magenta). Residues whose chemical shifts are affected are coloured yellow; these residues line the binding site. […]
Table S7. Concentration dependent shift changes of compound 4-A047 for a few residues whose chemical shifts have been assigned […]

The target of assay [4] is T1, SHANK1 PDZ. In words: Fluorescence anisotropy direct titration with FITC-labelled GKAP tracer. Here is the method: A diversity-based selection was performed on commercially available aldehyde fragments obeying guidelines for fragment-based drug design,[75] resulting in a small library of 129 compounds (A001–A129, Table S1 and Fig. S1 ^†). […] To allow us to perform the hybrid formation and screening in the presence of the target protein in a single step, it was necessary to first establish that SHANK1 PDZ was still able to bind to its natural ligand under the same conditions.
Figure S2. Rate of hydrazone exchange in 50 mM ammonium-acetate (NH4Ac), pH 6.5, 10 mM aniline buffer using 100 µM compound 4-A001 and 5 equivalents of three different aldehydes (corresponding to R2 groups) at room temperature. Hydrazone exchange was monitored by LC -MS; peaks for extracted ion chromatograms were integrated and normalized . […]
Figure S3. Fluorescence anisotropy direct titration of S HANK1 PDZ in 50 mM NH4Ac, pH 6.5 10 mM aniline containing buffer using 50 nM FITC-Ahx-GKAP as tracer. Plate was read after 24 hr incubation […]
Assays were performed in 50 mM NH4Ac, 10 mM aniline, pH 6.5 buffer. […] Fluorescence anisotropy direct titration assays were performed with protein concentration diluted over 24 points using ½ dilutions. […]
final protein concentration. […] For control wells, the tracer peptide was replaced with an identical volume of assay buffer and plates were read immediately, and after an hour or after 24 hours . […]

Setting [5] is: x-A001 incubated with 5 equiv aldehyde in presence of protein for 24 h, then 10 nM FITC-Ahx-TRL-COOH, SHANK1 PDZ 1 M, read-out: IC50 (Fig. S7-S9, S11, S12, hybrids selected for validation from single point screens).
The mark [6] stands for this setting: 1 µM Shank1 PDZ, 10 nM FITC-Ahx-TRL-COOH, plates read immediately, room temperature, read-out: IC50 (Fig. S4, parent peptides and benzaldehyde hydrazones).
Where [7] appears, read: Table S2, relative to core Ac-TRL-OH motif.

`CC(C)C[C@H](NC(=O)[C@H](CCCNC(=N)N)NC(=O)[C@@H](NC(=O)CCCC(=O)N/N=C/c1cccc(OC(C(=O)O)c2ccccc2)c1)[C@@H](C)O)C(=O)O` (stereo partly drawn) [4-A161] yielded a dissociation constant Kd in assay [1] of 1.54 ± 0.05 µM.
Turning to `CC(C)C[C@H](NC(=O)[C@H](CCCNC(=N)N)NC(=O)[C@@H](NC(=O)CCCC(=O)N/N=C/c1ccccc1C(=O)O)[C@@H](C)O)C(=O)O` [4-A047], the IC50 in assay [2] (setting [5]) is 7.3 ± 0.6 µM. This compound showed an equilibrium dissociation constant (Kd) in assay [1] of 4.6 ± 0.2 µM. Also, in assay [3], the EC50 was 2400 ± 300 µM.
Take `CC(C)C[C@H](NC(=O)[C@H](CCCNC(=N)N)NC(=O)[C@@H](NC(=O)CCC(=O)NN=Cc1ccccc1)[C@@H](C)O)C(=O)O` [3-A001]: the IC50 in assay [2] (setting [6]) worked out at 51 ± 3 µM. In addition, in assay [1], binding was put at a Kd of 16 ± 3 µM, the “n (ITC stoichiometry)” value is recorded as 1.04 ± 0.04, the ΔH was -2.32 ± 0.14 kcal/mol and the ΔS worked out at 59.0 J mol^−1 K^−1. Besides, in assay [1] (setting [7]), the “GE group efficiency (-ΔΔG/ΔNnH)” value turned out to be 0.07 and the “ΔΔG (ΔGCompound-ΔGAc-TRL-OH)” value is -0.201 kcal/mol.
Regarding `CC(C)C[C@H](NC(=O)[C@H](CCCNC(=N)N)NC(=O)[C@@H](NC(=O)CCC(=O)N/N=C/c1cccc(OC(C(=O)O)c2ccccc2)c1)[C@@H](C)O)C(=O)O` (stereo partly drawn) [3-A161], the dissociation constant Kd in assay [1] amounted to 4.8 ± 0.4 µM.
In the case of `CC(C)C[C@H](NC(=O)[C@H](CCCNC(=N)N)NC(=O)[C@@H](NC(=O)CCC(=O)N/N=C/c1ccc(C(=O)O)cc1)[C@@H](C)O)C(=O)O` [3-A048], the IC50 in assay [2] (setting [5]) was determined as 11 ± 1 µM. Moreover, binding in assay [1] was put at a Kd of 10 ± 1 µM.
Consider `CC(C)C[C@H](NC(=O)[C@H](CCCNC(=N)N)NC(=O)[C@@H](NC(=O)CCCC(=O)NN=Cc1ccccc1)[C@@H](C)O)C(=O)O` [4-A001], for which the IC50 in assay [2] (setting [6]) stood at 19 ± 3 µM. Further, the Kd in assay [1] worked out at 14.8 ± 0.8 µM.
For `CC(C)C[C@H](NC(=O)[C@H](CCCNC(=N)N)NC(=O)[C@@H](NC(=O)CCC(=O)N/N=C/c1ccc(Cl)cc1C(=O)O)[C@@H](C)O)C(=O)O` [3-A144], the IC50 in assay [2] (setting [5]) amounted to 9 ± 1.6 µM. In assay [1], this compound had a Kd of 7.1 ± 0.9 µM.
In the case of “Ac-EAQTRL-OH [GKAP, Ac-EAQTRL-COOH, reference compound]”, in assay [1], the “n (ITC stoichiometry)” value came out at 1.07 ± 0.01, the ΔH was -7.07 ± 0.096 kcal/mol and the ΔS is given as 9.7 J mol^−1 K^−1. For the same compound, the “ΔΔG (ΔGCompound-ΔGAc-TRL-OH)” value in assay [1] (setting [7]) was -1.44 kcal/mol.
As for `CC(C)C[C@H](NC(=O)[C@H](CCCNC(=N)N)NC(=O)[C@@H](NC(=O)CCCC(=O)N/N=C/c1ccc(Cl)cc1C(=O)O)[C@@H](C)O)C(=O)O` [4-A144], the IC50 in assay [2] (setting [5]) amounted to 3.7 ± 0.4 µM. The compound further yielded a Kd in assay [1] of 3.1 ± 0.2 µM.
The like results for `CC(C)C[C@H](NC(=O)[C@H](CCCNC(=N)N)NC(=O)[C@@H](NC(=O)CCC(=O)N/N=C/c1ccccc1C(=O)O)[C@@H](C)O)C(=O)O` [3-A047] were, in that order, 14 ± 1 µM and 8 ± 1 µM.
The like results for `CC(C)C[C@H](NC(=O)[C@H](CCCNC(=N)N)NC(=O)[C@@H](NC(=O)CCCC(=O)N/N=C/c1ccc(C(=O)O)cc1)[C@@H](C)O)C(=O)O` [4-A048] were, in that order, 7.5 ± 0.8 µM and 3.1 ± 0.2 µM.
`CC(C)C[C@H](NC(=O)[C@H](CCCNC(=N)N)NC(=O)[C@@H](NC(=O)[C@H](CCC(N)=O)NC(=O)[C@H](C)NC(=O)[C@H](CCC(=O)O)NC(=O)CCCCCNC(=S)Nc1ccc2c(c1)C(=O)OC21c2ccc(O)cc2Oc2cc(O)ccc21)[C@@H](C)O)C(=O)O` [FITC-Ahx-GKAP] ({FITC-Ahx}-EAQTRL-OH; C-terminus assumed): the dissociation constant Kd is 0.96 ± 0.08 µM in assay [4] (50 mM NH4Ac pH 6.5, 10 mM aniline, 50 nM tracer, read after 24 hr incubation at room temperature, read-out: KD (Fig. S3)) and around 1 µM in assay [4] (KD (initial) of FITC labelled GKAP, pH 6.5, 10 mM aniline, did not significantly change over 24 hours).
